Experimental findings from ChEMBL document CHEMBL5321227, “Lysosome-targeting phenalenones as efficient type I/II photosensitizers for anticancer photodynamic therapy” (Eur J Med Chem, 2023) are described below.

The nature of data set [1]: Drug metabolism in mouse 4T1 cells assessed as increase in carboxylesterase mediated 6-amino-5-iodo-1H-phenalen-1-one release at 5 uM incubated for 2 hrs by confocal laser scanning microscopy. The conditions noted are these: 4t1, 2 h. It is filed as ADME, cell-based.
Data set [2] can be described thus: Toxicity in BALB/c mouse xenografted with mouse 4T1 cells assessed as histopathological lesion in lung at 5 mg/kg,IT(Intratumoral) for 14 days by Hematoxylin and Eosin staining based microscopy. It counts as organism-based. The conditions noted are these: in vivo, other, 336 h, time 14 day.
Data set [3] can be described thus: Drug uptake in tumor of BALB/c mouse xenografted with mouse 4T1 cells at 5 mg/kg,IT(Intratumoral) and measured for 6 to 72 hrs by fluorescence imaging analysis. The conditions noted are these: in vivo, other, time 6-72 hrs. It is filed as ADME, organism-based, Neoplasm.
Data set [4] is described as follows: Drug metabolism in carboxylesterase (unknown origin) assessed as formation of active photosensitizer 6-amino-5-iodo-1H-phenalen-1-one by measuring increase in fluorescence at 610nM at 10 uM under by fluorescence assay. It is filed as ADME. The conditions noted are these: human.
The nature of data set [5]: Drug uptake in kidney of BALB/c mouse xenografted with mouse 4T1 cells at 5 mg/kg,IT(Intratumoral) and measured after 6 hrs by fluorescence imaging analysis. It counts as ADME, organism-based. As to conditions: in vivo, other.
The nature of data set [6]: Toxicity in BALB/c mouse xenografted with mouse 4T1 cells assessed as tissue destruction with large spaces in spleen at 5 mg/kg,IT(Intratumoral) for 14 days followed by photoirradiation with 500 to 700nm light (0.5 W) for 6 hrs by Hematoxylin and Eosin staining based microscopy. It counts as organism-based. As to conditions: in vivo, other, 342 h, time 14.25 day.
Data set [7] can be described thus: Photostability of compound in EtOH assessed as compound decomposition at 50 uM incubated for 5 to 20 mins under photoirradiation with 550nm and 10 J/cm^2 LED light by UV-visible spectroscopic analysis. It counts as physicochemical. The conditions noted are these: time 5-20 min.
Data set [8] is described as follows: Drug metabolism in human MDA-MB-231 cells assessed as increase in SR expression at 5 uM incubated for 2 hrs by flow cytometry analysis. The conditions noted are these: mda-mb-231, 2 h. It counts as ADME, cell-based. In general terms: In flow cytometry, cells or beads pass a laser one at a time.
Data set [9] can be described thus: Drug uptake BALB/c mouse xenografted with mouse 4T1 cells assessed as maximum fluorescence intensity in tumor at 5 mg/kg,IT(Intratumoral) and measured at 6 hrs by fluorescence imaging analysis. It counts as ADME, organism-based, Neoplasm. The conditions noted are these: in vivo, other.
A further data set relates to 4T1. The data set is described as follows: Antitumor activity against mouse 4T1 cells xenografted in BALB/c mouse assessed as tumor growth inhibition at 5 mg/kg,IT(Intratumoral) for 14 days relative to control. It is filed as functional, organism-based. The conditions noted are these: time 14.0 day.
Data set [10] is described as follows: Toxicity in BALB/c mouse xenografted with mouse 4T1 cells assessed as tissue destruction with large spaces in heart at 5 mg/kg,IT(Intratumoral) for 14 days followed by photoirradiation with 500 to 700nm light (0.5 W) for 6 hrs by Hematoxylin and Eosin staining based microscopy. It counts as organism-based. As to conditions: in vivo, other, 342 h, time 14.25 day.

Data set [11] is described as follows: Toxicity in BALB/c mouse xenografted with mouse 4T1 cells assessed as histopathological lesion in heart at 5 mg/kg,IT(Intratumoral) for 14 days by Hematoxylin and Eosin staining based microscopy. It is filed as organism-based. As to conditions: in vivo, other, 336 h, time 14 day.

Active and inactive are the calls of the source. The rule behind the calls is not given here.

Consider `O=C(CCl)Nc1c(I)cc2c3c(cccc13)C(=O)C=C2`, for which the Drug metabolism entry in data set [1], in [4] and in data set [8] was “Metabolite_Detected” throughout. In addition, the Activity result in [2] was “Non-Toxic”; in data set [6], “Toxic”; in data set [10], “Toxic”; in data set [11], “Non-Toxic”. Further, the Drug uptake result is “Not Active” in data set [3], “Active” in data set [5] and “Active” in data set [9]. Also, the Stability result in data set [7] was “Stable”. Besides, in the data set with 4T1, the outcome was Active.
